Assay results: patent publication US7157580B2, “Aminopyrimidine and aminopyridine anti-inflammation agents” (Roche Palo Alto LLC, priority 2001, dated 2007)

melting point: 203.6 to 206 °C
Structure (SMILES): Cn1cncc1-c1cc(/C=N/N(CCC(C)(C)O)C(N)=S)nc(NC2CCN(S(C)(=O)=O)CC2)n1 [Compound 96, 2-(1-methanesulfonyl-piperidin-4-ylamino)-6-(1-methyl-1H-imidazol-5-yl)-pyrimidine-4-carbaldehyde 2-(2-hydroxy-2-methyl-but-4-yl)-thiosemicarbazone]
